target: human recombinant P2X7 receptor (Homo sapiens (Human), UniProt Q99572); test: YO-PRO assay: P2X7 receptor antagonistic activity (ATP-induced YO-PRO-1 uptake, FLIPR); conditions: read-out: IC50 [nM], antagonistic activities with respect to the P2X7 receptor
Sequence (Q99572 whole entry): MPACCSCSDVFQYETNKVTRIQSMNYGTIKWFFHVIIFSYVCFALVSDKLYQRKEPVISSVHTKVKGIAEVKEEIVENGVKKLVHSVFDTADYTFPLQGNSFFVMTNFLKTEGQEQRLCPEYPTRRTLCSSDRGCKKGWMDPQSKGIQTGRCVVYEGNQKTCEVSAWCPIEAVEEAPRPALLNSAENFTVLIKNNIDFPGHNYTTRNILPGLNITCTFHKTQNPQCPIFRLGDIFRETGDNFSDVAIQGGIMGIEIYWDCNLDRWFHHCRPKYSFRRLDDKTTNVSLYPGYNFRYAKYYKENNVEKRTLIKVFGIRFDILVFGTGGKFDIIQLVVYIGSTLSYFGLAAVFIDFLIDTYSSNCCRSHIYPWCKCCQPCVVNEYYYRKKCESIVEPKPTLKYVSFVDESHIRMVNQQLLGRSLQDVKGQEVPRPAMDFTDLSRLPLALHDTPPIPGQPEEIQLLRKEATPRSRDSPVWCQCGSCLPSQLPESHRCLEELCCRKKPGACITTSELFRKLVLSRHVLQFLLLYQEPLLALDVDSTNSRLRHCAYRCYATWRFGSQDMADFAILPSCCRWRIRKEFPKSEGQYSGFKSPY

Compound	IC50 [nM]
(S)-2,3-Dihydro-furo[2,3-b]pyridine-3-carboxylic acid (R)-indan-1-ylamide and (R)-2,3-Dihydro-furo[2,3-b]pyridine-3-carboxylic acid (R)-indan-1-ylamide [Example 69]	400

same assay, conditions: read-out: IC50 [nM], antagonistic activities with respect to the P2X7 receptor; HEK-293 cells expressing human recombinant P2X7 receptor; YO-PRO-1 fluorescence; ATP 250 μM, 90 minutes; highest concentration 10 μM

Compound	IC50 [nM]
O=C(NC1CC1c1ccccc1)C1COc2ncccc21 (stereo not shown) [Example 64, 2,3-Dihydro-furo[2,3-b]pyridine-3-carboxylic acid (2-phenyl-cyclopropyl)-amide]	4850
NC(=O)C1CCCCC1NC(=O)C1COc2ncccc21 (stereo not shown) [Example 66, 2,3-Dihydro-furo[2,3-b]pyridine-3-carboxylic acid (2-carbamoyl-cyclohexyl)-amide]	5880
C[C@@H](NC(=O)C1COc2ncccc21)c1ccc(Cl)cc1Cl (stereo partly drawn) [Example 70, 2,3-Dihydro-furo[2,3-b]pyridine-3-carboxylic acid [(R)-1-(2,4-dichloro-phenyl)-ethyl]-amide]	110
C[C@@H](NC(=O)C1COc2ncccc21)c1ccc(Cl)cc1Cl (stereo partly drawn) [Example 71, 2,3-Dihydro-furo[2,3-b]pyridine-3-carboxylic acid [(R)-1-(2,4-dichloro-phenyl)-ethyl]-amide]	36.5
O=C(NCC(c1ccc(C(F)(F)F)cc1)N1CCC(F)(F)CC1)C1COc2ncccc21 (stereo not shown) [Example 78, 2,3-Dihydro-furo[2,3-b]pyridine-3-carboxylic acid [2-(4,4-difluoro-piperidin-1-yl)-2-(4-trifluoromethyl-phenyl)-ethyl]-amide]	122
O=C(NCC(c1cnc(C(F)(F)F)nc1)N1CCOCC1)C1COc2ncccc21 (stereo not shown) [Example 83, 2,3-Dihydro-furo[2,3-b]pyridine-3-carboxylic acid [2-morpholin-4-yl-2-(2-trifluoromethyl-pyrimidin-5-yl)-ethyl]-amide]	124
O=C(NCC(c1cnc(C(F)(F)F)nc1)N1CCOCC1)C1COc2ncccc21 (stereo not shown) [Example 84, 2,3-Dihydro-furo[2,3-b]pyridine-3-carboxylic acid [2-morpholin-4-yl-2-(2-trifluoromethyl-pyrimidin-5-yl)-ethyl]-amide]	20.8
COc1ccc(C(CNC(=O)C2COc3ncccc32)N2CCOCC2)cn1 (stereo not shown) [Example 87, 2,3-Dihydro-furo[2,3-b]pyridine-3-carboxylic acid [2-(6-methoxy-pyridin-3-yl)-2-morpholin-4-yl-ethyl]-amide]	978
Cc1ccc(C(CNC(=O)C2COc3ncccc32)N2CCOCC2)cn1 (stereo not shown) [Example 90, 2,3-Dihydro-furo[2,3-b]pyridine-3-carboxylic acid [2-(6-methyl-pyridin-3-yl)-2-morpholin-4-yl-ethyl]-amide]	1150
O=C(NCC(c1cnc(C2CC2)nc1)N1CCOCC1)C1COc2ncccc21 (stereo not shown) [Example 91, 2,3-Dihydro-furo[2,3-b]pyridine-3-carboxylic acid [2-(2-cyclopropyl-pyrimidin-5-yl)-2-morpholin-4-yl-ethyl]-amide]	215
O=C(NCC(c1ccc(C(F)(F)F)nc1)N1CCOCC1)C1COc2ncccc21 (stereo not shown) [Example 92, 2,3-Dihydro-furo[2,3-b]pyridine-3-carboxylic acid [2-morpholin-4-yl-2-(6-trifluoromethyl-pyridin-3-yl)-ethyl]-amide]	82.2
O=C(N[C@@H]1CCCc2ccccc21)C1COc2ncccc21 (stereo partly drawn) [Example 107, 2,3-dihydrofuro[2,3-b]pyridine-3-carboxylic acid ((R)-1,2,3,4-tetrahydronaphthalen-1-yl)-amide]	1220
O=C(N[C@@H]1CCCc2ccccc21)C1COc2ncccc21 (stereo partly drawn) [Example 108, 2,3-dihydrofuro[2,3-b]pyridine-3-carboxylic acid ((R)-1,2,3,4-tetrahydronaphthalen-1-yl)-amide]	191
O=C(N[C@@H]1CCCc2cccc(Cl)c21)C1COc2ncccc21 (stereo partly drawn) [Example 111, 2,3-Dihydro-furo[2,3-b]pyridine-3-carboxylic acid ((R)-8-chloro-1,2,3,4-tetrahydro-naphthalen-1-yl)-amide]	221
O=C(N[C@@H]1CCCc2cccc(Cl)c21)C1COc2ncccc21 (stereo partly drawn) [Example 112, 2,3-Dihydro-furo[2,3-b]pyridine-3-carboxylic acid ((R)-8-chloro-1,2,3,4-tetrahydro-naphthalen-1-yl)-amide]	9.5
O=C(NC1CCc2cccc(Br)c21)C1COc2ncccc21 (stereo not shown) [Example 113, 2,3-Dihydro-furo[2,3-b]pyridine-3-carboxylic acid (7-bromo-indan-1-yl)-amide]	35.9
O=C1c2c(Cl)cc(Cl)cc2CC1NC(=O)C1COc2ncccc21 (stereo not shown) [Example 116, 2,3-Dihydro-furo[2,3-b]pyridine-3-carboxylic acid (5,7-dichloro-1-oxo-indan-2-yl)-amide]	9010
(S)-2,3-Dihydro-furo[2,3-b]pyridine-3-carboxylic acid ((1S,2R)-2-hydroxy-indan-1-yl)-amide and (R)-2,3-Dihydro-furo[2,3-b]pyridine-3-carboxylic acid ((1S,2R)-2-hydroxy-indan-1-yl)-amide [Example 65]	3400

From patent US9409917B2, “Heterocyclic amide derivatives as P2X7 receptor antagonists” (ACTELION PHARMACEUTICALS LTD., priority 2012, dated 2016)
